The subject of data set [1] is Ishikawa (endometrial) cancer cell line. The data set is described as follows: CellTiter-Glo antiproliferative activity, Ishikawa cell line. It counts as cell-based, human. Conditions: 72 h exposure; for IC50: Homo sapiens, Ishikawa. The source says:
Numerous substituted THIQs were systematically synthesized employing molecular design and structure activity relationship studies (Suresh et al., (2014) Lett. Drug Design & Discov. 11: 428-436; Gangapuram et al., (2014) J. Cancer Sci. Ther. 6: 161-169). The compounds' cytotoxic effects on MCF-7 (estrogen receptor positive breast cancer) cell lines, MDA-MB-231 (estrogen receptor negative breast cancer) cell lines and Ishikawa cell lines using CellTiter-Glo (CTG) luminescent cell viability essay were studied. The tests were done on different concentrations of the compounds ranging from 0.01 to 100,000 nM on 5000 MCF-7 cells/well, on 5000 MDA-MB-231 cells/well and on 5000 Ishikawa cells/well. Drug exposed cells were incubated at 37° C. for three days followed by CTG assay. Then IC50 values were generated from Graph Pad Prism 4. […]
(§1) The antiproliferative activities of substituted tetrahydroisoquinolines 2a-2m, 3a-3l and 4a-4f were evaluated according to the procedure reported previously (Crouch et al., (1993) J. Immunol. Methods 160: 81-88).
(§2) Human MCF-7 and MDA-MB-231 breast cancer cell lines were purchased from the NCI. The human Ishikawa endometrial cancer cell line was purchased from Sigma Aldrich. All three cell lines were cultured in phenol red-free RPMI-1640 (Hyclone) (500 mL) supplemented with L-glutamine-dipeptide (Hyclone) (5 mL), and 10% fetal bovine serum (Atlanta Biologicals) (50 mL).
(§3) The cell lines were cultured and treated with compounds under study including the standard TAM ranging from 0.01 nM to 100,000 nM concentration in the presence of 10 nM estradiol using the previous reported method (Suresh et al., (2014) Lett. Drug Des. Discov. 11: 428-436).
(§4) The amount of ATP is determined using a system based on luciferase and D-luciferin resulting in light generation.
On the technique in general: ATP-based viability assays read luminescence as a measure of living cells.

Data set [2] relates to MCF-7 (ER positive breast cancer cell line). The data set is described as follows: CellTiter-Glo antiproliferative activity, MCF-7 cell line. Conditions: for IC50: Homo sapiens, MCF7; for IC50 / IC50 MCF-7: 72 h exposure. It counts as cell-based, human.
Excerpt: (§5) Numerous substituted THIQs were systematically synthesized employing molecular design and structure activity relationship studies (Suresh et al., (2014) Lett. Drug Design & Discov. 11: 428-436; Gangapuram et al., (2014) J. Cancer Sci. Ther. 6: 161-169). The compounds' cytotoxic effects on MCF-7 (estrogen receptor positive breast cancer) cell lines, MDA-MB-231 (estrogen receptor negative breast cancer) cell lines and Ishikawa cell lines using CellTiter-Glo (CTG) luminescent cell viability essay were studied. The tests were done on different concentrations of the compounds ranging from 0.01 to 100,000 nM on 5000 MCF-7 cells/well, on 5000 MDA-MB-231 cells/well and on 5000 Ishikawa cells/well. Drug exposed cells were incubated at 37° C. for three days followed by CTG assay. Then IC50 values were generated from Graph Pad Prism 4.
(§6) Chemistry: Several substituted tetrahydroisoquinolines 2d-2m, 3h, 3k, 3l, and 4a-4f were prepared according to three different procedures as shown in Schemes 1, 2 and 3 (FIGS. 2-4). […] The aminating agent 10 was prepared using a reported procedure (Tamura et al., (1972) J. Org. Chem. 40: 4133-4135). The amino salts of ring substituted 2-aminoisoquinolinium mesitylenesulfonates of general structure 11 used in the present study were prepared by the reaction of substituted isoquinolines and the aminating agent 10 as previously reported (Gangapuram et al., (2014) J. Cancer Sci. Ther. 6: 161-169). […] The aminating agent 13 was prepared using a reported procedure (Legault & Charette (2003) J. Org. Chem. 68: 7119-7122). The amino salts of ring substituted 2-aminoisoquinolinium compounds of general structure 14 were obtained with the reaction of the substituted isoquinolines and the aminating agent 13 in CH3CN heated at 50° C. for 24 hours. Without further purification, the salts were used to prepare the N-ylides by reaction with substituted acyl/sulfonyl chlorides. […] N-Oxidation of commercially available ring substituted THIQs followed by the reduction of the NO group using standard zinc/acetic acid led to the synthesis of N-amino THIQs.
as §1, §2, §3, §4

Data set [3] has as its system MDA-MB-231 (ER negative breast carcinoma cell line). The data set can be described thus: CellTiter-Glo antiproliferative activity, MDA-MB-231 cell line. Conditions: 72 h exposure; for IC50: Homo sapiens, MDA-MB-231. In kind it is cell-based, human.
Excerpt: as §5, §6, §1, §2, §3

Where [4] appears, read: Table 1, in the presence of 10 nM estradiol, read-out: IC50 Ishikawa.
Where [5] appears, read: Table 1, in the presence of 10 nM estradiol, read-out: IC50 MCF-7.
The mark [6] stands for this setting: Table 1, in the presence of 10 nM estradiol.
Where [7] appears, read: Table 2, estradiol added, read-out: IC50 Ishikawa.
Setting [8] is: Table 2, estradiol added, read-out: IC50 MCF-7.

Converted amounts (≈) assume the structure as drawn. Counter-ions that a name gives are not always drawn. Like-named read-outs stand apart in the source and are kept apart here.

What is called IC50 is the midpoint of a concentration-inhibition curve. By melting point is commonly meant the temperature of the solid-liquid transition.

On to `COc1ccc(C(=O)NN2CCc3ccc(O)cc3C2)cc1` [Compound 2d, N-(7-hydroxy-3,4-dihydroisoquinolin-2(1H)-yl)-4-methoxybenzamide], for which the melting point was 192.5 to 194.3 °C. In addition, in data set [1] (setting [4]), the IC50 turned out to be 0.99 µg/mL. Also, in data set [2] (setting [5]), the IC50 was over 29.8 µg/mL. In data set [3] (setting [6]), the IC50 stood at 25.2 µg/mL.
The compound `COc1cccc(C(=O)NN2CCc3ccc(O)cc3C2)c1` [Compound 2e, N-(7-hydroxy-3,4-dihydroisoquinolin-2(1H)-yl)-3-methoxybenzamide] displayed a melting point of 190.5 to 192.3 °C. The IC50 in data set [1] (setting [4]) was found to be 0.31 µg/mL. Further, in data set [2] (setting [5]), the IC50 turned out to be 1.86 µg/mL. Moreover, the IC50 in data set [3] (setting [6]) stood at 1.71 µg/mL.
On to `COc1ccccc1C(=O)NN1CCc2ccc(O)cc2C1` [Compound 2f, N-(7-hydroxy-3,4-dihydroisoquinolin-2(1H)-yl)-2-methoxybenzamide], for which the melting point fell in the range of 197.3 to 199.4 °C. Also, the IC50 in data set [1] (setting [4]) is over 29.8 µg/mL. In addition, in data set [2] (setting [5]), the IC50 was over 29.8 µg/mL. The IC50 in data set [3] (setting [6]) was over 29.8 µg/mL.
For `CCc1ccccc1C(=O)NN1CCc2ccc(O)cc2C1` [Compound 2g, 2-Ethyl-N-(7-hydroxy-3,4-dihydroisoquinolin-2(1H)-yl) benzamide], in data set [1] (setting [6]), the “IC50 Ishikawa” value was over 29.64 µg/mL. In addition, in data set [2] (setting [6]), the “IC50 MCF-7” value was over 29.64 µg/mL. Moreover, in data set [3] (setting [6]), the “IC50 MDA-MB-231” value is over 29.64 µg/mL.
In the case of `CCc1ccc(C(=O)NN2CCc3cc(O)ccc3C2)cc1` [Compound 2h, 4-Ethyl-N-(6-hydroxy-3,4-dihydroisoquinolin-2(1H)-yl) benzamide], the “IC50 Ishikawa” value in data set [1] (setting [6]) stood at 22.38 µg/mL. For the same compound, the “IC50 MCF-7” value in data set [2] (setting [6]) was over 29.64 µg/mL. In addition, in data set [3] (setting [6]), the “IC50 MDA-MB-231” value is over 29.64 µg/mL.
`CCc1ccc(C(=O)NN2CCc3cccc(N)c3C2)cc1` [Compound 2k, N-(8-amino-3,4-dihydroisoquinolin-2(1H)-yl)-4-ethylbenzamide] gave a melting point of 223.5 to 224.8 °C. In addition, the IC50 in data set [1] (setting [4]) is 0.6 µg/mL. In addition, the IC50 in data set [2] (setting [5]) is 2.23 µg/mL. Further, in data set [3] (setting [6]), the IC50 amounted to 16.8 µg/mL.
As for `Nc1ccc(C(=O)NN2CCc3ccc(Br)cc3C2)cc1` [Compound 2l, 4-Amino-N-(7-bromo-3,4-dihydroisoquinolin-2(1H)-yl) benzamide], the “IC50 Ishikawa” value in data set [1] (setting [6]) worked out at 1.09 µg/mL. Moreover, the “IC50 MCF-7” value in data set [2] (setting [6]) was found to be 2.80 µg/mL. In addition, the “IC50 MDA-MB-231” value in data set [3] (setting [6]) worked out at 9.86 µg/mL.
For `COc1cccc2c1CCN(NC(=O)c1ccc(C(C)(C)C)cc1)C2` [Compound 3a, 4-(tert-butyl)-N-(5-Methoxy-3,4-dihydroisoquinolin-2(1H)-yl) benzamide] the same measures were over 33.84 µg/mL, over 33.84 µg/mL and over 33.84 µg/mL.
For `CC(C)(C)c1ccc(C(=O)NN2CCc3c(O)cccc3C2)cc1` [Compound 3b, 4-(tert-butyl)-N-(5-Hydroxy-3,4-dihydroisoquinolin-2(1H)-yl) benzamide], in that order: 10.96 µg/mL, 7.92 µg/mL and 10.25 µg/mL.
For `CC(C)(C)c1ccc(C(=O)NN2CCc3c(cccc3OCc3ccccc3)C2)cc1` [Compound 3e, N-(5-(Benzyloxy)-3,4-dihydroisoquinolin-2(1H)-yl)-4-(tertbutyl) benzamide], the “IC50 Ishikawa” value in data set [1] (setting [6]) is over 41.45 µg/mL. Moreover, the “IC50 MCF-7” value in data set [2] (setting [6]) was over 41.45 µg/mL. Moreover, the “IC50 MDA-MB-231” value in data set [3] (setting [6]) was over 41.45 µg/mL.
With `CCc1ccc(C(=O)NN2CCc3c(O)cccc3C2)cc1` [Compound 3f, 4-Ethyl-N-(5-hydroxy-3,4-dihydroisoquinolin-2(1H)-yl) benzamide], the “IC50 Ishikawa” value in data set [1] (setting [6]) turned out to be 9.93 µg/mL. The “IC50 MCF-7” value in data set [2] (setting [6]) was 18.61 µg/mL. For the same compound, the “IC50 MDA-MB-231” value in data set [3] (setting [6]) was found to be 15.61 µg/mL.
`CCc1ccc(C(=O)NN2CCc3cc(C(=O)OC)ccc3C2)cc1` [Compound 3h, methyl-2-(4-ethylbenzamido)-1,2,3,4-tetrahydroisoquinoline-6-carboxylate]: the results for the IC50 in data set [1] (setting [4]), in data set [2] (setting [5]) and in data set [3] (setting [6]) were 8.64 µg/mL, 15.2 µg/mL and 16.1 µg/mL, respectively.
Regarding `CCc1ccc(C(=O)NN2CCc3cc(C(=O)O)ccc3C2)cc1` [Compound 3k, 2-(4-Ethylbenzamido)-1,2,3,4-tetrahydroisoquinoline-6-carboxylic acid], the melting point was in the range of 251 to 253 °C. Moreover, the IC50 in data set [1] (setting [4]) is over 32.4 µg/mL. Moreover, the IC50 in data set [2] (setting [5]) is over 32.4 µg/mL. In addition, in data set [3] (setting [6]), the IC50 was over 32.4 µg/mL.
With `CCc1ccccc1C(=O)NN1CCc2ccc(C#N)cc2C1` [Compound 4a, N-(7-Cyano-3,4-dihydroisoquinolin-2(1H)-yl)-2-ethylbenzamide], the melting point lay in the range of 162 to 167 °C. For the same compound, the IC50 in data set [1] (setting [4]) is over 30.5 µg/mL. Also, the IC50 in data set [2] (setting [5]) came out at 26.4 µg/mL. Further, the IC50 in data set [3] (setting [6]) is over 30.5 µg/mL.
`CCc1ccc(C(=O)NN2CCc3cc(OC)c(OC)cc3C2)cc1` [Compound 4b, N-(6,7-Dimethoxy-3,4-dihydroisoquinolin-2(1H)-yl)-4-ethylbenzamide] had a melting point of 224 to 225 °C. In data set [1] (setting [4]), the IC50 was over 34.1 µg/mL. Further, the IC50 in data set [2] (setting [5]) is over 34.1 µg/mL. In addition, in data set [3] (setting [6]), the IC50 is over 34.1 µg/mL.
On to `CCc1ccc(C(=O)NN2CCc3ccc(C#N)cc3C2)cc1` [Compound 4d, N-(7-Cyano-3,4-dihydroisoquinolin-2(1H)-yl)-4-ethylbenzamide], for which the IC50 in data set [1] (in the presence of 10 nM estradiol, read-out: IC50 against Ishikawa cell line) is under 7.87 µg/mL; in data set [1] (setting [4]), 0.9 µg/mL; in data set [2] (in the presence of 10 nM estradiol, read-out: IC50 against MCF-7 cell line), 1.28 µg/mL; in data set [2] (setting [5]), 1.28 µg/mL; in data set [3] (setting [6]) it was 1.76 µg/mL. The “antiproliferative activity against MCF-7 cell line in words” value in data set [2] (based on IC50 value) was “moderate activity”.
With `O=C(c1ccc(OCCN2CCCCC2)cc1)c1c(-c2ccc(O)cc2)sc2cc(O)ccc12` [Raloxifene-Hydrochloride, reference compound], the IC50 in data set [1] (setting [4]) amounted to 10.5 µg/mL; in data set [2] (setting [5]) it was 0.98 µg/mL; in data set [3] (setting [6]), 11.2 µg/mL.
Turning to `CCc1ccc(C(=O)NN2CCc3ccc(Cl)cc3C2)cc1` [Redda-EVK-I-132, N-(7-Chloro-3,4-dihydroisoquinolin-2(1H)-yl)-4-ethylbenzamide], the IC50 was 0.318 µg/mL (≈ 1.01 µM) in data set [1] (setting [7]); 0.678 µg/mL (≈ 2.15 µM) in data set [2] (setting [8]); 0.826 µg/mL (≈ 2.62 µM) in data set [3] (Table 2, estradiol added).
For `CCc1ccc(C(=O)NN2CCc3ccccc3C2c2ccco2)cc1` (stereo not shown) [Redda-EVK-I-135, 4-Ethyl-N-(1-(furan-2-yl)-3,4-dihydroisoquinolin-2(1H)-yl)benzamide], in that order: 1.71 µg/mL (≈ 4.94 µM), 2.39 µg/mL (≈ 6.9 µM) and 3.88 µg/mL (≈ 11.2 µM).
For `CCc1ccc(C(=O)NN2CCc3ccc(OS(N)(=O)=O)cc3C2)cc1` [Redda-GM-4-171, 2-(4-Ethylbenzamido)-1,2,3,4-tetrahydroisoquinolin-7-yl-sulfamate] the same measures were 0.12 µg/mL (≈ 0.32 µM), 2.14 µg/mL (≈ 5.7 µM) and 2.53 µg/mL (≈ 6.74 µM).

Values taken from patent publication US10730840B2, “Substituted tetrahydroisoquinoline ethylbenzamide anti-cancer agents” (Florida A&M University, priority 2017, dated 2020).
